Test results published in publication PMC10746543, “Design principles for cyclin K molecular glue degraders” (Nature Chemical Biology, 2023).
“And” between values parts separate entries of the source, which are not always exact repeats. Equal entries are not always repeated. Where two headings read alike, the source gives them in different places. Blank lines part the entries; values can stand above or below the compound they belong to.

Legend:
[1] = target: T1, CDK2–cyclin A (Homo sapiens, UniProt P24941); assay: Lanthascreen kinase binding assay, CDK2; details: for Lanthascreen signal, sheet CDK2: raw replicates
T1 construct: purchased Thermo Fisher
Procedure: Lanthascreen experiments were performed using commercially available reagents (Thermo Fisher) and according to the manufacturer’s instructions.

[2] = target: T2, CDK12–cyclin K and DDB1 (Homo sapiens, UniProt Q16531+Q9NYV4, K965R); assay: TR-FRET ternary complex formation assay (compound titration); format: binding
T2 construct: His6–CDK12 (a.a. 713–1,052); full-length or beta-propeller B domain deletion (ΔBPB: a.a. 396–705 deleted) constructs of His6–DDB1ΔBPB, StrepII–Avi–DDB1, or His6–Spy–DDB1; made in house; host or cells: Trichoplusia ni High Five insect cells (baculovirus)
Summary of the method: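 TR-FRET ratio 520/490 nm; 70 μs delay before read to suppress background.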

[3] = Compound 0.038147 nM, experiment r13-r23
[4] = Compound 0.152588 nM, experiment r13-r23
[5] = Compound 0.610352 nM, experiment r13-r23
[6] = Compound 1.02544 nM, experiment r1-r11
[7] = Compound 3.15521 nM, experiment r1-r11
[8] = Compound 9.46563 nM, experiment r1-r11
[9] = Compound 9.76563 nM, experiment r13-r23
[10] = Compound 31.5521 nM, experiment r1-r11
[11] = Compound 39.0625 nM, experiment r13-r23
[12] = Compound 99.3891 nM, experiment r1-r11
[13] = Compound 156.25 nM, experiment r13-r23
[14] = Compound 315.521 nM, experiment r1-r11
[15] = Compound 625 nM, experiment r13-r23
[16] = Compound 2500 nM, experiment r13-r23
[17] = Compound 3155.21 nM, experiment r1-r11
[18] = Compound 10000 nM, experiment r13-r23
[19] = Compound 10002 nM, experiment r1-r11
[20] = Lanthascreen, average, Extended Data Fig. 8, read-out: CDK2 IC50
[21] = Supplementary Table 2, read-out: Lanthascreen IC50 [nM] CDK2
[22] = compound concentration 0.468 nM
[23] = compound concentration 7.92001 nM
[24] = compound concentration 15.84 nM
[25] = compound concentration 30.96 nM
[26] = compound concentration 62.6401 nM
[27] = compound concentration 79.2001 nM
[28] = compound concentration 125.28 nM
[29] = compound concentration 158.4 nM
[30] = compound concentration 244.8 nM
[31] = compound concentration 309.6 nM
[32] = compound concentration 626.401 nM
[33] = compound concentration 993.601 nM
[34] = compound concentration 1252.8 nM
[35] = compound concentration 2001.6 nM
[36] = compound concentration 9936.01 nM
[37] = compound concentration 20016 nM
[38] = in vitro complex formation, 50 nM CDK12–cyclin K, 100 nM DDB1, text and figures, read-out: TR-FRET EC50
[39] = sheet MOESM7, read-out: log TR-FRET EC50 (converted)

T2 sequence (Q9NYV4 713-1052 K965R): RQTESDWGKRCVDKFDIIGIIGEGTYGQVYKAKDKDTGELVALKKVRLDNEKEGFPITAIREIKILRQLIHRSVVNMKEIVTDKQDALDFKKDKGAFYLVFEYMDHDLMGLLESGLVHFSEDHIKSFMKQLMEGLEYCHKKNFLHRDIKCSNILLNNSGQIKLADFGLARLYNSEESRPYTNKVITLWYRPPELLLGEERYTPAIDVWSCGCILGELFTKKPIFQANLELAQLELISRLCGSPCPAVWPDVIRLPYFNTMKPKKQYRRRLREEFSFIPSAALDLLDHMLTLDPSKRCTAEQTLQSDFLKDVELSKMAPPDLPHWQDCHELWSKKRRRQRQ
T2 sequence (O75909 1-267 partner): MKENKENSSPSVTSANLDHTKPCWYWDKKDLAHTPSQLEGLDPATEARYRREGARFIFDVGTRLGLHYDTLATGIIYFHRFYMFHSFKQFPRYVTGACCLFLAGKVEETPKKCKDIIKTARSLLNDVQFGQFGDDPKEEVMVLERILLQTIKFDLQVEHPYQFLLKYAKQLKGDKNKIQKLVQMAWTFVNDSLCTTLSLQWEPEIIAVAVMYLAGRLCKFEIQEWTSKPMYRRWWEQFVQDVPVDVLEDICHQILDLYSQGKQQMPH
T2 sequence (Q16531 whole entry): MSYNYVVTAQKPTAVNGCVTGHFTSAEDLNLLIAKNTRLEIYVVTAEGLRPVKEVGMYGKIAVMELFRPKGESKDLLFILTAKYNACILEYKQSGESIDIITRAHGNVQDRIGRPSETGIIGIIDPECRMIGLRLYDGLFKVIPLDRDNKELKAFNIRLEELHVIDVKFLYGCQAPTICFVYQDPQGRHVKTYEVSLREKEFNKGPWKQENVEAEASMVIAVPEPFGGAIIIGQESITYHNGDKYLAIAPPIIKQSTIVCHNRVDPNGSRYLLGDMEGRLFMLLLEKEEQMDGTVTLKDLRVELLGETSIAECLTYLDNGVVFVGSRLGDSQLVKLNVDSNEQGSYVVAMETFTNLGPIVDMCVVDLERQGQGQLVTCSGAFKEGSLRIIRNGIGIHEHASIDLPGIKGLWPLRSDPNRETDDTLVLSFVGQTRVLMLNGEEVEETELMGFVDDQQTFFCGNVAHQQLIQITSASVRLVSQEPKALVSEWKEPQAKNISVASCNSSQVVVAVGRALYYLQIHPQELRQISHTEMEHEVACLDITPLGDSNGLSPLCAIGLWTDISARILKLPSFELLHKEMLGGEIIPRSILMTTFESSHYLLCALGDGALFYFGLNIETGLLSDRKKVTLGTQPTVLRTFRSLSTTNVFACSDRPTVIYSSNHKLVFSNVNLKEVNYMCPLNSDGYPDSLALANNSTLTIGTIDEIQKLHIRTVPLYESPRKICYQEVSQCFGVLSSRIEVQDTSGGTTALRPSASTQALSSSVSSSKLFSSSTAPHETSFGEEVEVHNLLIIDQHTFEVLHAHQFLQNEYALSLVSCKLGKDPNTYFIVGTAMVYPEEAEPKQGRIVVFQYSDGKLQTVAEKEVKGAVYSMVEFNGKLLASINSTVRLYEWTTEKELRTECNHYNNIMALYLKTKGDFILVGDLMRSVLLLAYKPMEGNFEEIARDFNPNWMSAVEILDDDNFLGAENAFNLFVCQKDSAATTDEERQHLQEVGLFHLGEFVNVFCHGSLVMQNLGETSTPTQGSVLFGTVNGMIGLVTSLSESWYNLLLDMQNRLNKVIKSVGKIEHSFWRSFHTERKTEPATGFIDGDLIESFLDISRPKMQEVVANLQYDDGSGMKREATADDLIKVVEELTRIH

- Lanthascreen signal, sheet CDK2 [1, 3]: 0.01324 and 0.0125
- Lanthascreen signal, sheet CDK2 [1, 4]: 0.01322 and 0.0127
- Lanthascreen signal, sheet CDK2 [1, 5]: 0.01294 and 0.01324
- Lanthascreen signal, sheet CDK2 [1, 6]: 0.01157 and 0.009543
- Lanthascreen signal, sheet CDK2 [1, 7]: 0.01134 and 0.008854
- Lanthascreen signal, sheet CDK2 [1, 8]: 0.008629 and 0.01226
- Lanthascreen signal, sheet CDK2 [1, 9]: 0.01333 and 0.01313
- Lanthascreen signal, sheet CDK2 [1, 10]: 0.009538 and 0.01114
- Lanthascreen signal, sheet CDK2 [1, 11]: 0.01348 and 0.0134
- Lanthascreen signal, sheet CDK2 [1, 12]: 0.01108 and 0.01101
- Lanthascreen signal, sheet CDK2 [1, 13]: 0.01287 and 0.01355
- Lanthascreen signal, sheet CDK2 [1, 14]: 0.0103 and 0.01153
- Lanthascreen signal, sheet CDK2 [1, 15]: 0.01294 and 0.01314
- Lanthascreen signal, sheet CDK2 [1, 16]: 0.01073 and 0.0108
- Lanthascreen signal, sheet CDK2 [1, 17]: 0.01038 and 0.01039
- Lanthascreen signal, sheet CDK2 [1, 18]: 0.01123 and 0.01202
- Lanthascreen signal, sheet CDK2 [1, 19]: 0.01161 and 0.009572
- IC50 [1, 20]: > 10000 nM
- IC50 [1, 21]: > 10000 nM
- TR-FRET signal [2, 22]: 0.3316 and 0.3176
- TR-FRET signal ([2]; compound concentration 2.16 nM): 0.3609 and 0.3684
- TR-FRET signal ([2]; compound concentration 3.6 nM): 0.446 and 0.4561
- TR-FRET signal ([2]; compound concentration 4.68 nM): 0.2526 and 0.2575
- TR-FRET signal [2, 23]: 0.6045 and 0.6093
- TR-FRET signal [2, 24]: 0.8627 and 0.8782
- TR-FRET signal ([2]; compound concentration 21.6 nM): 0.6074 and 0.6249
- TR-FRET signal [2, 25]: 1.396 and 1.344
- TR-FRET signal ([2]; compound concentration 36 nM): 1.231 and 1.287
- TR-FRET signal [2, 26]: 1.902 and 1.956
- TR-FRET signal [2, 27]: 2.008 and 2.099
- TR-FRET signal [2, 28]: 2.531 and 2.559
- TR-FRET signal [2, 29]: 2.698 and 2.725
- TR-FRET signal [2, 30]: 3.133 and 3.085
- TR-FRET signal [2, 31]: 3.151 and 3.239
- TR-FRET signal [2, 32]: 3.549 and 3.629
- TR-FRET signal [2, 33]: 3.858 and 3.701
- TR-FRET signal [2, 34]: 3.752 and 3.846
- TR-FRET signal [2, 35]: 3.973 and 3.947
- TR-FRET signal ([2]; compound concentration 2448 nM): 3.918 and 3.967
- TR-FRET signal [2, 36]: 3.896 and 3.914
- TR-FRET signal [2, 37]: 3.769 and 3.757
- EC50 [2, 38]: 83 ± 4 nM
- EC50 [2, 39]: 83.2 nM
- EC50 ([2]; source data sheet correlations, read-out: TR-FRET EC50): 83.2 nM
Structure (SMILES): O=C(CSc1nnc2c(n1)[nH]c1ccccc12)Nc1ccc(Cl)cn1 [dCeMM2]

- Lanthascreen signal, sheet CDK2 [1, 3]: 0.01285 and 0.01289
- Lanthascreen signal, sheet CDK2 [1, 4]: 0.01318 and 0.01321
- Lanthascreen signal, sheet CDK2 [1, 5]: 0.01258 and 0.01278
- Lanthascreen signal, sheet CDK2 [1, 6]: 0.008366 and 0.009193
- Lanthascreen signal, sheet CDK2 [1, 7]: 0.01197 and 0.009076
- Lanthascreen signal, sheet CDK2 [1, 8]: 0.01142 and 0.01118
- Lanthascreen signal, sheet CDK2 [1, 9]: 0.01261 and 0.01356
- Lanthascreen signal, sheet CDK2 [1, 10]: 0.01118 and 0.009287
- Lanthascreen signal, sheet CDK2 [1, 11]: 0.01377 and 0.01313
- Lanthascreen signal, sheet CDK2 [1, 12]: 0.01102 and 0.008633
- Lanthascreen signal, sheet CDK2 [1, 13]: 0.01301 and 0.01263
- Lanthascreen signal, sheet CDK2 [1, 14]: 0.01039 and 0.01098
- Lanthascreen signal, sheet CDK2 [1, 15]: 0.01331 and 0.01224
- Lanthascreen signal, sheet CDK2 [1, 16]: 0.0123 and 0.01244
- Lanthascreen signal, sheet CDK2 [1, 17]: 0.0101 and 0.009174
- Lanthascreen signal, sheet CDK2 [1, 18]: 0.01049 and 0.00891
- Lanthascreen signal, sheet CDK2 [1, 19]: 0.008182 and 0.007001
- IC50 [1, 20]: > 10000 nM
- IC50 [1, 21]: > 10000 nM
- EC50 ([2]; Supplementary Table 2, read-out: TR-FRET EC50 TR-FRET): 263 nM
- TR-FRET signal [2, 22]: 0.3108 and 0.3043
- TR-FRET signal ([2]; compound concentration 2.16 nM): 0.3247 and 0.3252
- TR-FRET signal ([2]; compound concentration 3.6 nM): 0.3605 and 0.3572
- TR-FRET signal ([2]; compound concentration 4.68 nM): 0.1862 and 0.1908
- TR-FRET signal [2, 23]: 0.4123 and 0.4112
- TR-FRET signal [2, 24]: 0.5374 and 0.5369
- TR-FRET signal ([2]; compound concentration 21.6 nM): 0.3061 and 0.3287
- TR-FRET signal [2, 25]: 0.7082 and 0.7121
- TR-FRET signal ([2]; compound concentration 36 nM): 0.5639 and 0.6148
- TR-FRET signal [2, 26]: 1.02 and 1.082
- TR-FRET signal [2, 27]: 0.9671 and 1.036
- TR-FRET signal [2, 28]: 1.467 and 1.538
- TR-FRET signal [2, 29]: 1.482 and 1.527
- TR-FRET signal [2, 30]: 2.062 and 2.196
- TR-FRET signal [2, 31]: 2.068 and 2.079
- TR-FRET signal [2, 32]: 2.602 and 2.623
- TR-FRET signal [2, 33]: 3.096 and 3.149
- TR-FRET signal [2, 34]: 3.107 and 3.1711
- TR-FRET signal [2, 35]: 3.3098 and 3.397
- TR-FRET signal ([2]; compound concentration 2448 nM): 3.437 and 3.468
- TR-FRET signal [2, 36]: 3.722 and 3.727
- TR-FRET signal [2, 37]: 3.796 and 3.749
- EC50 [2, 38]: 263 ± 13 nM
- EC50 [2, 39]: 263 nM
Structure (SMILES): O=C(CSc1nc2ccccc2[nH]1)Nc1ccc(Cl)cn1 [dCeMM3]
